Assay results: paper PMC11339798, “Dual inhibitors of Pseudomonas aeruginosa virulence factors LecA and LasB” (Chemical Science, 2024)

Assays:
LecA [1] = target: T1, LecA (Pseudomonas aeruginosa, UniProt Q05097); test: Competitive binding assay for LecA based on fluorescence polarization; design: species or system P. aeruginosa
T1 construct: made in house; host or cells: E. coli (plasmid pET25-pail)
Method: The four thiols 17, 18, 24 and 25 as well as three disulfides 26a, 26b and 27 were then evaluated for their activity against LecA using a competitive binding assay based on fluorescence polarization (Fig. 4B). […]
Expression and purification of LasB and LecA
LecA was expressed recombinantly using E. coli pET25-pail, whereas LasB was isolated from P. aeruginosa PA14 culture supernatant as described previously. 1,2
LecA labeling with fluorescein was performed in analogy to Sommer et al. 3 and Beshr et al.4 To this end fluorescein isothiocyanate (FITC) was freshly dissolved in carbonate-bicarbonate buffer with pH of 9.3 at a concentration of 3 mg mL-1. Subsequently, 66 µL of this FITC solution was combined with 1.4 mL of LecA at a concentration of 60 µM in carbonate-bicarbonate buffer, pH 9.3. The resulting mixture was then incubated at 25 °C with shaking at 500 rpm for 1 hour. Then, extensive washing with PBS/Ca2+ in a 5 kDa molecular weight cutoff centrifugal concentrator was performed to remove excess dye and buffer the labelled protein. […]
Competitive binding assay for LecA
The procedure for the fluorescence polarization-based competitive binding assay for LecA was performed as reported by Joachim et al. with modifications. 1 The assay was performed in TBS/Ca2+ buffer (20 mM Tris, 137 mM NaCl, 2.6 mM KCl at pH 7.4 supplemented with 1 mM CaCl 2 and contained 5% DMSO). The final protein concentration in the assay was 5 µM for LecA. Fluorescence intensities were recorded on a PheraStar FS plate reader (BMG Labtech GmbH, Germany) and polarization was calculated using MARS Data Analysis (BMG Labtech).
IC50 values were obtained from a four-parameter curve-fitting procedure. Averages and standard deviations were calculated from at least three independent experiments of technical

LecA [2] = target: T1, LecA; test: Surface plasmon resonance direct LecA binding assay (immobilized LecA); design: species or system P. aeruginosa
Excerpt: Therefore, we measured the LecA affinity of thiol derivatives 17, 18, 24 and 25 and disulfides 26a, 26b and 27 using surface plasmon resonance (SPR) with LecA covalently immobilized on a sensor chip via amide coupling (Fig. 5 and Table 1). […] Thiols 17, 18, 24 and 25 reached equilibrium binding within 60 s of interaction with immobilized LecA, followed by their dissociation with moderate off-rates. […] Due to the very small off-rates for 26a, 26b and 27, these values have been calculated based on the response at […] of the injected compound and monitoring their dissociation for 30 min (Fig. S2 ^†). The observed very tight binding to immobilized LecA required optimization of the protein surface regeneration procedure. Effective conditions were identified as one injection of 50 mm isopropyl β-D-thiogalactoside in the running buffer, followed by one injection of 20 mm EDTA disodium salt in water. The regenerated chip surface was controlled using an injection of 1 to ensure that the activity of LecA was maintained.
Surface plasmon resonance direct LecA binding assay
SPR experiments were performed on a Reichert 2-channel SPR SR7500DC (Reichert Technologies Life Sciences, Buffalo, NY, USA) at 25 °C. For LecA immobilization, the surface of a HC1000M sensor chip (XanTec bioanalytics GmbH, Düsseldorf, Germany) was preequilibrated with borate buffer (1 M NaCl, 0.1 M sodium borate pH 9.0), followed by activation of the polycarboxylate hydrogel with 0.2 M N-hydroxysuccinimide (NHS) and 0.4 M 1-ethyl-3-(3-dimethylaminopropyl)carbodiimide hydrochloride (EDC‧HCl) in MilliQ water in both channels for 240 s (flow rate 10 μL/min) until the binding response reached 1200 RU.
Then, LecA (100 μg/mL) in 10 mM sodium acetate pH 3.6 was injected on the activated chip surface of one channel (injection time 420 s, flow rate 10 μL/min) and 6000 RU of LecA were immobilized. Unreacted NHS esters in both channels were blocked with 1 M ethanolamine hydrochloride in MilliQ water pH 8.5 (injection time 360 s, flow rate 10 μL/min).
Test compound stock solutions were prepared in DMSO (20 mM stocks for monovalent LecA inhibitors, 20 µM stocks for divalent LecA inhibitors) and were subsequently diluted in 10 mM phosphate buffer (pH 7.4, 2.7 mM KCl, 137 mM NaCl, 100 μM CaCl2) to obtain solutions with […]
Monovalent inhibitors 17, 18, 24 and 25 were injected for 120 s (flow rate 50 μL/min) at concentrations ranging from 0.39–100 µM. Divalent inhibitors 26a, 26b and 27 were injected for 120 s (flow rate 50 μL/min) at concentrations 50–350 nM. The chip surface was regenerated after each inhibitor injection by one injection of 50 mM IPTG in running buffer (10 mM phosphate buffer, pH 7.4, 2.7 mM KCl, 137 mM NaCl, 100 μM CaCl2, 2% DMSO) followed by one injection 20 mM EDTA disodium salt in MilliQ water, and then followed by three injections of the running buffer (injection time 120 s, flow rate 50 μL/min). 100 µM pNP-Gal (1) in running buffer was injected before each analyte to monitor and ensure chip regeneration and […]
Affinity/equilibrium analysis was performed for 1 on the same chip. A stock solution of 1 (10 mM in PBS/CaCl2 buffer) was prepared, then diluted to the required concentrations in running buffer and injected at 1.56–400 µM (injection time 60 s, flow rate 50 μL/min) without regeneration steps. Data analysis was performed using TraceDrawer software (Ridgeview Instruments) using a 1:1 binding model to fit the experimental data. Spikes at the end of the injections were removed in TraceDrawer during the data analysis.

Kinetic solubility = assay type: physicochemical; settings: aqueous buffer, kinetic from dmso stock; 10 mm PBS with 2% DMSO at 37 °C

T1 sequence (Q05097 whole entry): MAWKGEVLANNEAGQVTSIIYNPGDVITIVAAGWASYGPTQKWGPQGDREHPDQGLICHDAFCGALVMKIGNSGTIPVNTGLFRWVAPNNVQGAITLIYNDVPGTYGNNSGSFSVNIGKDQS

Question: For `CC(C)CC(SSC(CC(C)C)C(=O)Nc1ccc(S[C@@H]2O[C@H](CO)[C@H](O)[C@H](O)[C@H]2O)cc1)C(=O)Nc1ccc(S[C@@H]2O[C@H](CO)[C@H](O)[C@H](O)[C@H]2O)cc1` (some centres unmarked) [Compound 27], which IC50 (LecA [1]) is on record?
Answer: Its IC50 is 5.7 µM.

Question: What about the Kd (LecA [2]) of the same compound?
Answer: Its Kd is 4.5 ± 0.4 nM.

Question: What about the k a (LecA [2]; SPR, immobilized LecA) of the same compound?
Answer: Its k a is 5.2 ± 0.6 ×10^4 M^−1 s^−1.

Question: What about the k d (LecA [2]; SPR, immobilized LecA) of the same compound?
Answer: The k d was 2.2 ± 0.3 ×10^−4 s^−1.

Question: What about the solubility kinetic (Kinetic solubility) of the same compound?
Answer: The solubility kinetic was > 600 µM.
